Measured values from patent US6391911B1, “Coadministration of lucanthone and radiation for treatment of cancer” (priority 1999, dated 2002).
Entries after “also recorded” stand apart in the source; their conditions may differ. Where a name gives a salt, the structure may show the parent alone. Starred links: 1 amine or outer side, 2 acyl side, 3 side chain; linkers in the order of their positions; H or OH if unused. Positions of bridges follow the written chain, without caps; N, C: chain ends. Non-standard residues stand in square brackets, D forms with d. Residues, ends and D or L forms follow the SMILES beside them. Chains are numbered I, II in the order given. Actinocin(9to1) = Cc1c2oc3c(C)ccc(C(=O)[*:1])c3nc-2c(C(=O)[*:2])c(N)c1=O; NMeV = CN[C@H](C(=O)O)C(C)C; Sar = CNCC(=O)O

What was measured:
[1] = Tissue distribution of ^3H lucanthone in tumor-bearing mice; type: in vivo, C3H-HeHa mice
Procedure: Ten six-week-old 18-20 gram female C3H-HeHa mice obtained from West Seneca Laboratories (West Seneca, N.Y.) were injected subcutaneously in the right nipple line with 1.4×10^6 viable C3H-BA mammary adenocarcinoma cells. With such inocula, 1-2-mm tumors were detectable within 3 days. If allowed to grow, they killed the mice in 36-38 days. This highly invasive tumor could grow rapidly from inocula as low as 10^4 cells.
In order to minimize the influence of tumor size on drug distribution, drug was administered at various times during the course of tumor growth. Each day, from the seventh to eleventh day after injection, two mice were injected intraperitoneally with 1.27 mg^3 H lucanthone methanesulfonate. Lucanthone methanesulfonate, after being labeled by tritium exchange of hydrogen, was 96%-99% pure by thin layer chromatography. Before injection in mice, the specific radioactivity of ^3H lucanthone, originally 135 MBq/mg, was reduced to 67.5 MBq/mg by dilution with unlabeled lucanthone methanesulfonate. The total dose of radioactivity was 8.74 MBq (236 μCi) in 0.44 ml. All mice were sacrificed on the twelfth day, at which time the tumors were all approximately the same size, 7-12 mm in greatest diameter.
Distribution of tritium-labeled material in tissues represents lucanthone and its metabolites. Following sacrifice by cervical dislocation, the wet weight of samples of various organ or tumor tissue was determined immediately. Samples (about 50 mg each) were placed in glass scintillation vials with metal foil-lined caps. An alkaline tissue solubilizer, Protosol (DuPont—NEN), was added for digestion; radioactivity was determined by liquid scintillation techniques, as recommended by the manufacturer. Quench corrections were made for each sample to avoid interference from colored substances in individual samples. Hair was shaved from the skin samples to avoid its contribution to the weight of the sample.

[2] = systemic chemotherapy; cited from earlier work
[3] = Tolerability in human clinical studies; type: in vivo
Procedure: Cancer patients were administered lucanthone hydrochloride in a total dose of 10 mg/Kg per day. The patients were given the drug in three divided doses in order to maintain blood and tissue levels. […] Lucanthone hydrochloride 250 mg tablets for clinical use [GRH/0/1581] were a gift of the Wellcome Foundation. Nausea and other side effects were not observed when patients received 10 mg/Kg.
Standard whole brain radiation, 30 Gy with an 8 MeV linear accelerator in ten equal doses over 2 weeks, was given in conjunction with lucanthone at 10 mg/Kg in three doses/day. Patients were assigned to radiation alone or radiation and lucanthone from a table of random numbers. Tumor sizes for each patient were determined before and after therapy independently by two neuroradiologists who had no knowledge of the protocol assignments.
Both treatments were omitted on weekends and were stopped after ten treatment days. […] No other chemotherapy was given during this time, except steroids, which is standard treatment with patients with brain metastases.

[4] = reason for use as imaging control; cited from earlier work
[5] = Gamma camera imaging of radiolabeled rat models; type: in vivo; conditions: rats; intravenous radiotracer; pinhole collimator
Procedure: Rats were injected with ^125I-labeled lucanthone and ^99mTc-pertechnetate. Lucanthone hydrochloride used for ^125I labeling was 97.5% pure by HPLC mass spectroscopy (Sterling Winthrop Research Institute, R009CJ). ^125I labeled lucanthone was prepared by a modification of the chloramine T method, to be described in detail in a separate publication [Moran JK, Li Y, Deng HF, Labeling and biodistribution of lucanthone (in preparation)]. The product identity was confirmed by thin layer chromatography. ^99mTc-pertechnetate was obtained from a conventional laboratory supplier. The image acquisitions were performed using a Picker Dyna Camera 4C using Nuclear MAC imaging software running on a Power MAC 8100/80 AV computer. Images were obtained using a pinhole collimator with a collimator to rat distance of 6.5 cm.
Each animal was imaged using ^99mTc-pertechnetate (3.7 MBq). […] Therefore, a photopenic area in the image corresponds to the location of the rat brain.
Twenty-four hours following administration of ^99mTc-pertechnetate, ^125I lucanthone was administered to each test animal. Images were acquired in the left lateral position every 10 min after intravenous administration of 1.1 MBq of ^125I lucanthone.

CCN(CC)CCNc1ccc(C)c2sc3ccccc3c(=O)c12 [^3H lucanthone]
^3H label in tumor tissue relative to skin and muscle ([1]; first and second days following intraperitoneal drug injection, C3H-BA mammary adenocarcinoma): Enrichment of the ^3H label was detected in tumor tissue relative to skin and muscle
^3H lucanthone uptake and removal in brain, lung and spleen ([1]; intraperitoneal injection): little difference
^3H label concentration in livers and kidneys compared with tumor ([1]; intraperitoneal injection, principal excretory organs): higher concentrations were found than in the tumor

Cc1c2oc3c(C)ccc(C(=O)N[C@@H]4C(=O)N[C@H](C(C)C)C(=O)N5CCC[C@H]5C(=O)N(C)CC(=O)N(C)[C@@H](C(C)C)C(=O)O[C@@H]4C)c3nc-2c(C(=O)N[C@@H]2C(=O)N[C@H](C(C)C)C(=O)N3CCC[C@H]3C(=O)N(C)CC(=O)N(C)[C@@H](C(C)C)C(=O)O[C@@H]2C)c(N)c1=O [actinomycin D] (I: T[dV]P[Sar][NMeV] / II: T[dV]P[Sar][NMeV]; ester I:1-I:C, II:1-II:C; linker I:N-II:N via Actinocin(9to1))
Crossing of the blood-brain barrier [2]: fail to cross the blood-brain barrier in useful amounts

COc1cc([C@@H]2c3cc4c(cc3[C@@H](O[C@@H]3O[C@@H]5CO[C@@H](C)O[C@H]5[C@H](O)[C@H]3O)[C@H]3COC(=O)[C@H]23)OCO4)cc(OC)c1O [etoposide]
Crossing of the blood-brain barrier [2]: fail to cross the blood-brain barrier in useful amounts; also recorded: crosses the blood-brain barrier poorly

CCN(CC)CCNc1ccc(C)c2sc3ccccc3c(=O)c12 [lucanthone hydrochloride]
Tolerability of total dose ([3]; cancer patients, 10 mg/Kg per day in three divided doses): well tolerated
Nausea and other side effects ([3]; patients received 10 mg/Kg): not observed

^99mTc-pertechnetate
Crossing of the blood-brain barrier (known property) [4]: known not to cross the blood-brain barrier
Photopenic area at the location of the brain in gamma camera scans [5]: show a photopenic area in the animal's head
